Laboratory results from patent US20260070903A1, “NOVEL PYRIDO[3,4-D]PYRIMIDIN-8-ONE DERIVATIVE HAVING PROTEIN KINASE INHIBITORY ACTIVITY, AND PHARMACEUTICAL COMPOSITION FOR PREVENTING, ALLEVIATING, OR TREATING CANCER, COMPRISING SAME” (KOREA INSTITUTE OF SCIENCE AND TECHNOLOGY, priority 2019, published 2026).

Key:
GCK [1] = target: T1, GCK (Homo sapiens, UniProt Q12851); assay: Inhibitory activity against GCK kinase (IC50); assay type: biochemical
T1 sequence (Q12851 1-820): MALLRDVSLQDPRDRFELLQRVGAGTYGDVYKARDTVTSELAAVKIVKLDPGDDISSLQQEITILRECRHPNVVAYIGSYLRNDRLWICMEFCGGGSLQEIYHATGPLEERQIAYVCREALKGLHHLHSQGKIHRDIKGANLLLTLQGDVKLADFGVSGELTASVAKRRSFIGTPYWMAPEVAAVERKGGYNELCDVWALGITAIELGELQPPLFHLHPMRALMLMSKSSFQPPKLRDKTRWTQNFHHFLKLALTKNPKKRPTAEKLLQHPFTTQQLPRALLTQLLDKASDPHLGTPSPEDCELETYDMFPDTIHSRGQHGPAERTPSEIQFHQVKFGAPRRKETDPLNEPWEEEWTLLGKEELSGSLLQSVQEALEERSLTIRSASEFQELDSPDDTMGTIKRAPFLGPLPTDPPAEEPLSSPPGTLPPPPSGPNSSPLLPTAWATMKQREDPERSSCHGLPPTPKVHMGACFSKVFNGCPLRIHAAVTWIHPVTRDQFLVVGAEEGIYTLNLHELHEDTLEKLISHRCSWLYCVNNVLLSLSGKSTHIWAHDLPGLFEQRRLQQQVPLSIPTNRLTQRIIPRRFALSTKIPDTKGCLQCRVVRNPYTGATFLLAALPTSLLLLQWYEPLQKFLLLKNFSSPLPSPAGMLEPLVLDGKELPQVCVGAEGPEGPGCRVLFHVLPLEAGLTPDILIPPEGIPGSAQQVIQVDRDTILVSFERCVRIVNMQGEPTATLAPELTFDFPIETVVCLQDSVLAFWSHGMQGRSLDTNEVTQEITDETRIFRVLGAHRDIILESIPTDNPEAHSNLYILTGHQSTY
Description: The inhibitory activities of the compounds of the present disclosure against two kinases, GCK and ACK1, were measured, and the IC50 values thereof were calculated.

OCI-AML3 (N-Ras Q61L) = assay: Proliferation inhibitory activity, OCI-AML3; assay type: cell-based, human; conditions: Homo sapiens, OCI-AML-3
Description: The inhibitory activities of the compounds of the present disclosure against the proliferation of the mt-NRAS (G12D) Ba/F3 and OCI-AML3 (mt-NRAS) cell lines were measured and the GI50 values thereof were calculated.

ABL1 = ABL1 (Homo sapiens, UniProt P00519); assay: Kinase panel biochemical assay, ABL1; conditions: single concentration of 1 μM, read-out: percent inhibition of kinase
Description: (§1) As a test compound, Compound No. 55 was used. The percent inhibition of each kinase when treated with the test compound at a single concentration of 1 μM was measured, and the residual enzyme activity values (%) of the kinases were calculated. Kinases whose calculated residual enzyme activity values (%) was 30% or less (i.e., kinases inhibited by 70% or more) are as follows: […]

ABL2 = ABL2 (Homo sapiens, UniProt P42684); assay: Kinase panel biochemical assay, ABL2; conditions: single concentration of 1 μM, read-out: percent inhibition of kinase
Description: as §1

BMX = BMX (Homo sapiens, UniProt P51813); assay: Kinase panel biochemical assay, BMX; conditions: single concentration of 1 μM, read-out: percent inhibition of kinase
Description: as §1

CSK = CSK (Homo sapiens, UniProt P41240); assay: Kinase panel biochemical assay, CSK; conditions: single concentration of 1 μM, read-out: percent inhibition of kinase
Description: as §1

DDR1 = DDR1 (Homo sapiens, UniProt Q08345); assay: Kinase panel biochemical assay, DDR1; conditions: single concentration of 1 μM, read-out: percent inhibition of kinase
Description: as §1

DDR2 = DDR2 (Homo sapiens, UniProt Q16832); assay: Kinase panel biochemical assay, DDR2; conditions: single concentration of 1 μM, read-out: percent inhibition of kinase
Description: as §1

EPHA7 = EPHA7 (Homo sapiens, UniProt Q15375); assay: Kinase panel biochemical assay, EPHA7; conditions: single concentration of 1 μM, read-out: percent inhibition of kinase
Description: as §1

EPHB1 = EPHB1 (Homo sapiens, UniProt P54762); assay: Kinase panel biochemical assay, EPHB1; conditions: single concentration of 1 μM, read-out: percent inhibition of kinase
Description: as §1

GCK [2] = target: T1, GCK; assay: Kinase panel biochemical assay, GCK; conditions: single concentration of 1 μM, read-out: percent inhibition of kinase
Description: as §1

JAK1 = JAK1 (Homo sapiens, UniProt P23458); assay: Kinase panel biochemical assay, JAK1; conditions: single concentration of 1 μM, read-out: percent inhibition of kinase
Description: as §1

JAK2 = JAK2 (Homo sapiens, UniProt O60674); assay: Kinase panel biochemical assay, JAK2; conditions: single concentration of 1 μM, read-out: percent inhibition of kinase
Description: as §1

KDR = KDR (Homo sapiens, UniProt P35968); assay: Kinase panel biochemical assay, KDR; conditions: single concentration of 1 μM, read-out: percent inhibition of kinase
Description: as §1

KHS = KHS (Homo sapiens, UniProt Q9Y4K4); assay: Kinase panel biochemical assay, KHS; conditions: single concentration of 1 μM, read-out: percent inhibition of kinase
Description: as §1

LCK = LCK (Homo sapiens, UniProt P06239); assay: Kinase panel biochemical assay, LCK; conditions: single concentration of 1 μM, read-out: percent inhibition of kinase
Description: as §1

LYN = LYN (Homo sapiens, UniProt P07948); assay: Kinase panel biochemical assay, LYN; conditions: single concentration of 1 μM, read-out: percent inhibition of kinase
Description: as §1

LYNB = LYNB (Homo sapiens, UniProt P07948); assay: Kinase panel biochemical assay, LYNB; conditions: single concentration of 1 μM, read-out: percent inhibition of kinase
Description: as §1

p38a = p38a (Homo sapiens, UniProt Q16539); assay: Kinase panel biochemical assay, p38a; conditions: single concentration of 1 μM, read-out: percent inhibition of kinase
Description: as §1

PDGFRa = PDGFRa (Homo sapiens, UniProt P16234); assay: Kinase panel biochemical assay, PDGFRa; conditions: single concentration of 1 μM, read-out: percent inhibition of kinase
Description: as §1

PDGFRb = PDGFRb (Homo sapiens, UniProt P09619); assay: Kinase panel biochemical assay, PDGFRb; conditions: single concentration of 1 μM, read-out: percent inhibition of kinase
Description: as §1

PEAK1 = PEAK1 (Homo sapiens, UniProt Q9H792); assay: Kinase panel biochemical assay, PEAK1; conditions: single concentration of 1 μM, read-out: percent inhibition of kinase
Description: as §1

RAF1 = RAF1 (Homo sapiens, UniProt P04049); assay: Kinase panel biochemical assay, RAF1; conditions: single concentration of 1 μM, read-out: percent inhibition of kinase
Description: as §1

RET = RET (Homo sapiens, UniProt P07949); assay: Kinase panel biochemical assay, RET; conditions: single concentration of 1 μM, read-out: percent inhibition of kinase
Description: as §1

SRMS = SRMS (Homo sapiens, UniProt Q9H3Y6); assay: Kinase panel biochemical assay, SRMS; conditions: single concentration of 1 μM, read-out: percent inhibition of kinase
Description: as §1

TIE2 = TIE2 (Homo sapiens, UniProt Q02763); assay: Kinase panel biochemical assay, TIE2; conditions: single concentration of 1 μM, read-out: percent inhibition of kinase
Description: as §1

TXK = TXK (Homo sapiens, UniProt P42681); assay: Kinase panel biochemical assay, TXK; conditions: single concentration of 1 μM, read-out: percent inhibition of kinase
Description: as §1

YES = YES (Homo sapiens, UniProt P07947); assay: Kinase panel biochemical assay, YES; conditions: single concentration of 1 μM, read-out: percent inhibition of kinase
Description: as §1

Sequence of TXK (P42681 whole entry): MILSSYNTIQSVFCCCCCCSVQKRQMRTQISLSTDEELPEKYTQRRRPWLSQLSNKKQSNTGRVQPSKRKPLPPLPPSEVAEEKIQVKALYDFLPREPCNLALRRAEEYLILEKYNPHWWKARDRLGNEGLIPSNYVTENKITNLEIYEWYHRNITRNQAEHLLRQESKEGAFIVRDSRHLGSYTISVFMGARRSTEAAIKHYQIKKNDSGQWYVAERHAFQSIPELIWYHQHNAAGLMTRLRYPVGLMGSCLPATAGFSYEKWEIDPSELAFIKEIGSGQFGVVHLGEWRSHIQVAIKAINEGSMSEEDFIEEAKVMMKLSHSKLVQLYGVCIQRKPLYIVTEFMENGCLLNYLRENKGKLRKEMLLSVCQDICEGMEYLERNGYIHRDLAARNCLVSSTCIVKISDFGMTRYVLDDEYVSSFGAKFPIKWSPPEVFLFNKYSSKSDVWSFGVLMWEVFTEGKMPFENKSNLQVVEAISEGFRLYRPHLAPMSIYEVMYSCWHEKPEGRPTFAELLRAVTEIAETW
Sequence of LYN (P07948 whole entry): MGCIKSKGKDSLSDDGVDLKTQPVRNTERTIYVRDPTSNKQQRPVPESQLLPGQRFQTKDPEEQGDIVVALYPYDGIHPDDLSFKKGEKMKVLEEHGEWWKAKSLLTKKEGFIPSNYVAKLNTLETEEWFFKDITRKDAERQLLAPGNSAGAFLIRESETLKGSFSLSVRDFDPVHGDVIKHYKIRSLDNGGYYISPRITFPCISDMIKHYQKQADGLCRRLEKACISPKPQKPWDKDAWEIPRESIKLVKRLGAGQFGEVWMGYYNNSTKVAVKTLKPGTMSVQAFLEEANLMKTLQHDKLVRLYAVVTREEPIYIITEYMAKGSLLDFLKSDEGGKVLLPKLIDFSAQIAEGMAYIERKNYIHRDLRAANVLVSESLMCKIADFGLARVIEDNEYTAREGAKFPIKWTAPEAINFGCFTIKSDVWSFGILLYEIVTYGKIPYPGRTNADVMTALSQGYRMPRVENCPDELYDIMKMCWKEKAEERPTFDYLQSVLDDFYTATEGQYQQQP
Sequence of PDGFRb (P09619 33-1106): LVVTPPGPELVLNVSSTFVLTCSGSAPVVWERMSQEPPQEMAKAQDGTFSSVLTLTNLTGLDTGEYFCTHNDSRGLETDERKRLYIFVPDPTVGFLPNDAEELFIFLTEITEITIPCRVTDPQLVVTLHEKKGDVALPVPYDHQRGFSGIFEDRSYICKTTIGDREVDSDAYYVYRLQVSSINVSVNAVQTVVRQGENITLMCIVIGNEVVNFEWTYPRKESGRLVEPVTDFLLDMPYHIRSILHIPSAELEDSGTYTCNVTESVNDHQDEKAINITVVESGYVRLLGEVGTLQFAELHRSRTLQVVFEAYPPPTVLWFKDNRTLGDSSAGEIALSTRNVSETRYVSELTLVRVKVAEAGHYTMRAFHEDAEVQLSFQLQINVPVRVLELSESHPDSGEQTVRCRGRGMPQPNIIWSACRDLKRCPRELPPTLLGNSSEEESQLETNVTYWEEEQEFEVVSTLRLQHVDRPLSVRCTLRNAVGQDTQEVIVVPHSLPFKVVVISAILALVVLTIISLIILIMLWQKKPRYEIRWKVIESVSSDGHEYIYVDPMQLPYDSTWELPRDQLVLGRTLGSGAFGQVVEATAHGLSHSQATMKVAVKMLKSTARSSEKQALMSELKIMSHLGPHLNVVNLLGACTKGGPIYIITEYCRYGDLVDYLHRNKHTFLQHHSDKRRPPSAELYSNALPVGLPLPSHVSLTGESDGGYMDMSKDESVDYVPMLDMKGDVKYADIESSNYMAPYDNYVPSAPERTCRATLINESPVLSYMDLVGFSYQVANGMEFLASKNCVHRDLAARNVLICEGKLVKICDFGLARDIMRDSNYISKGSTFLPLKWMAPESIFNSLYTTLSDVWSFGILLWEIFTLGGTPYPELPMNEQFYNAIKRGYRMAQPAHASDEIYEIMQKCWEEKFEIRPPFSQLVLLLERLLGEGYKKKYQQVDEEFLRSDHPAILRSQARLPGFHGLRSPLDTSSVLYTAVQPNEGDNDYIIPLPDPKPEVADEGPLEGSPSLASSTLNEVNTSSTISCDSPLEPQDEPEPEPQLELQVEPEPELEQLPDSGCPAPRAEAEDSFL
Sequence of SRMS (Q9H3Y6 whole entry): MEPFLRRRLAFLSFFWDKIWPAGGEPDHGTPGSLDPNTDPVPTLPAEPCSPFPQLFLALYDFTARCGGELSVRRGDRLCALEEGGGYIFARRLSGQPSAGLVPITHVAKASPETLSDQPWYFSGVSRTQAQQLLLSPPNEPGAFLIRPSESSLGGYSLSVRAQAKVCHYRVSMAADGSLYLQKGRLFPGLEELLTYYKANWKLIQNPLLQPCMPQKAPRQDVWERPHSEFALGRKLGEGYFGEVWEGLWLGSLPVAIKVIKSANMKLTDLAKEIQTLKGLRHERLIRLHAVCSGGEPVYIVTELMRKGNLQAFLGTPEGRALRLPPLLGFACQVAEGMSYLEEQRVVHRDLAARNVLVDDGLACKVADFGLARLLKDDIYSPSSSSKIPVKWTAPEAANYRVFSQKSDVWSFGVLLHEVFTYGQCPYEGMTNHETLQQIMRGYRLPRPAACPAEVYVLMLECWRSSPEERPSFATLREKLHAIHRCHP
Sequence of ABL1 (P00519 whole entry): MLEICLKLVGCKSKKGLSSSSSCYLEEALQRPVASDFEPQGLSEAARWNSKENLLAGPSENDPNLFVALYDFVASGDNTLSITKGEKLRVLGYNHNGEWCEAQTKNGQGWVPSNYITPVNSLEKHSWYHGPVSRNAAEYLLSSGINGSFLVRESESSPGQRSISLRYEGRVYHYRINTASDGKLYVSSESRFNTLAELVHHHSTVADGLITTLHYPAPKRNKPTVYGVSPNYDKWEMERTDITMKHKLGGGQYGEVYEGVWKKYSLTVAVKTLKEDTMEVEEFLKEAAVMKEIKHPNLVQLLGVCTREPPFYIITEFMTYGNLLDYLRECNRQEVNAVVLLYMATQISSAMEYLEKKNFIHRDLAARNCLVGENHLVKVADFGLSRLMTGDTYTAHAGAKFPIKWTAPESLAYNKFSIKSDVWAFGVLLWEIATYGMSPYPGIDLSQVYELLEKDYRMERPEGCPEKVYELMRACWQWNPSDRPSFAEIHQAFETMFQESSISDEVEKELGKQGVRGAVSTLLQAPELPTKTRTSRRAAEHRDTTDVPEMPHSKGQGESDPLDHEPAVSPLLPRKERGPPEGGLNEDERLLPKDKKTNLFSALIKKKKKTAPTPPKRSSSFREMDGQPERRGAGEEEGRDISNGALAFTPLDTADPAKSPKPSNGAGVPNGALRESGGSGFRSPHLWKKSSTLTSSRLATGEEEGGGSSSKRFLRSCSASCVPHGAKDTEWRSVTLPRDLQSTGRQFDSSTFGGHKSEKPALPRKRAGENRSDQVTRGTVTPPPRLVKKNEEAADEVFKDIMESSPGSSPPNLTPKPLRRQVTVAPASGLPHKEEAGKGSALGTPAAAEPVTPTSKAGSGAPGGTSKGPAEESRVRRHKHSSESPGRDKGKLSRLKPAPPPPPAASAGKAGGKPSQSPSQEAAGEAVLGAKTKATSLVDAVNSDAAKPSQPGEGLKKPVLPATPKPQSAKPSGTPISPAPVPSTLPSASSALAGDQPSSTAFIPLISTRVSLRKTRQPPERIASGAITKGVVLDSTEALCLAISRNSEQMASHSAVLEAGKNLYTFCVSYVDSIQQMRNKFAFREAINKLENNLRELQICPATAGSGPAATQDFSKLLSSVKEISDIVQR
Sequence of KHS (Q9Y4K4 whole entry): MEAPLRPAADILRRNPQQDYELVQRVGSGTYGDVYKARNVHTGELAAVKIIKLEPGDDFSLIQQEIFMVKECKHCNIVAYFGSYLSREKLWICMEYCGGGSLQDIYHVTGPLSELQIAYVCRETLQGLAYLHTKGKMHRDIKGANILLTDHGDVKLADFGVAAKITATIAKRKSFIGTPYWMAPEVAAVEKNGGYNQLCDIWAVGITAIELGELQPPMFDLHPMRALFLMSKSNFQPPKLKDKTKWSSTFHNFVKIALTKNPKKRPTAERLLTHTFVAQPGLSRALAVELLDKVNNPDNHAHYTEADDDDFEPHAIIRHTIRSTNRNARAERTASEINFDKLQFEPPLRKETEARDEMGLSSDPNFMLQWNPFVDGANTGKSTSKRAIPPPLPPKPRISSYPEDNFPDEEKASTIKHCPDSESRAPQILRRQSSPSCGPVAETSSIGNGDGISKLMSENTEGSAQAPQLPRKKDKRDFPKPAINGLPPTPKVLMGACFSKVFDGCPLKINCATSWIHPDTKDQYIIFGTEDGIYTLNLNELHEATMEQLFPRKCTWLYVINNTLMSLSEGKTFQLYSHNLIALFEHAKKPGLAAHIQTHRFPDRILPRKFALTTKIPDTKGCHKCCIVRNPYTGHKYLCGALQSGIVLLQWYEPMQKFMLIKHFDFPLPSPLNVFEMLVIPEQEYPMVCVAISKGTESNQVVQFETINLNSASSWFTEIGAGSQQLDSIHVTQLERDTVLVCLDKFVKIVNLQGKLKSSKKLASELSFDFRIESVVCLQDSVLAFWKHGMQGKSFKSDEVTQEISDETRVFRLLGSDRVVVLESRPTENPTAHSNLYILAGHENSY
Sequence of p38a (Q16539 whole entry): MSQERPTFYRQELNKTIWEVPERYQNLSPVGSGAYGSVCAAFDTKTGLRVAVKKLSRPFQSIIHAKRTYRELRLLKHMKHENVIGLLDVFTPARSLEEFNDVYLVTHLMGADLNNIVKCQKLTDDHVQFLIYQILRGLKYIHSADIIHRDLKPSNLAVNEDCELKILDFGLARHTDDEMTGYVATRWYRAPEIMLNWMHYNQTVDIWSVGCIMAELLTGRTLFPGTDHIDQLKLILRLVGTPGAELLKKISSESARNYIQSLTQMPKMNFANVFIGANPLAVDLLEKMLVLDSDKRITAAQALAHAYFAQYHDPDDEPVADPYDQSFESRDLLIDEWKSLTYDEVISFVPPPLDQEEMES

IC50 (GCK [1]): 1000 to 10000 nM | GI50 (OCI-AML3 (N-Ras Q61L)): < 0.5 µM | inhibition at 1 µM (ABL1): ≥ 70% | inhibition at 1 µM (ABL2): ≥ 70% | inhibition at 1 µM (BMX): ≥ 70% | inhibition at 1 µM (CSK): ≥ 70% | inhibition at 1 µM (DDR1): ≥ 70% | inhibition at 1 µM (DDR2): ≥ 70% | inhibition at 1 µM (EPHA7): ≥ 70% | inhibition at 1 µM (EPHB1): ≥ 70% | inhibition at 1 µM (GCK [2]): ≥ 70% | inhibition at 1 µM (JAK1): ≥ 70% | inhibition at 1 µM (JAK2): ≥ 70% | inhibition at 1 µM (KDR): ≥ 70% | inhibition at 1 µM (KHS): ≥ 70% | inhibition at 1 µM (LCK): ≥ 70% | inhibition at 1 µM (LYN): ≥ 70% | inhibition at 1 µM (LYNB): ≥ 70% | inhibition at 1 µM (p38a): ≥ 70% | inhibition at 1 µM (PDGFRa): ≥ 70% | inhibition at 1 µM (PDGFRb): ≥ 70% | inhibition at 1 µM (PEAK1): ≥ 70% | inhibition at 1 µM (RAF1): ≥ 70% | inhibition at 1 µM (RET): ≥ 70% | inhibition at 1 µM (SRMS): ≥ 70% | inhibition at 1 µM (TIE2): ≥ 70% | inhibition at 1 µM (TXK): ≥ 70% | inhibition at 1 µM (YES): ≥ 70%
Structure (SMILES): Cc1ccc(NC(=O)c2cccc(C(F)(F)F)c2)cc1-c1cc2cnc(N)nc2c(=O)[nH]1 [Compound No. 55, N-(3-(2-amino-8-oxo-7,8-dihydropyrido[3,4-d]pyrimidin-6-yl)-4-methylphenyl)-3-(trifluoromethyl)benzamide]
